Consider two compounds from US4472386A, “5-Fluoro-(β-uridine or 2'-deoxy-β-uridine) derivatives, a process for producing the same and a carcinostatic agent containing the same” (Toyama Chemical Co., Ltd., priority 1978, dated 1984).

One data set deals with SLC-ddY mice. The conditions noted are these: mouse, in vivo. The text has this: (a) The test compound was suspended in 0.25% CMC solution and administered intraperitoneally to SLC-ddY mice (5 weeks old, male, 6 mice per group). The number of dead mice was counted over the subsequent three weeks.
Data set [1] has as its system Sarcoma-180 ascites tumor. Kind of data set: Inhibition of Sarcoma-180 ascites tumor in mice, intravenous administration (Table 3). To be noted: 10 mg/kg i.v. once daily for 7 days; for T/C (average tumor weight ratio between test group and control group): Sarcoma-180, day 10. Format: in vivo, ddY mice. The procedure: 2. Experiment on the inhibition of Sarcoma-180 ascites tumor
Sarcoma-180 ascites tumor was subcutaneously inoculated into the right inguinal region of ddY mice (5 weeks old, male, 8 mice per group) with 3×10^6 cells per mouse. Twenty four hours after the inoculation,a test drug dissolved in 10% polyethylene glycol was administered intravenously to the test group successively once daily for 7 days, while the same quantity as above of 10% polyethylene glycol was intravenously administered to the control group. Ten days after the inoculation, the tumor was excised and weighed, from which the average tumor weight ratio between the test group and the control group (T/C) was determined.

The test system of data set [2] is Ehrlich ascites carcinoma. As to the kind of experiment: Inhibition of Ehrlich solid tumor in mice, intraperitoneal administration (Table 1). Format: in vivo, ddY mice. Also noted: response vs control in vivo: dose or concentration left out as unconfirmed. The procedure: (§1) 1. Experiment on the inhibition of Ehrlich solid tumor
Ehrlich ascites carcinoma was subcutaneously inoculated into the right inguinal region of ddY mice (5 weeks old, male, 8 mice per group) with 3×10^6 cells per mouse.
24 Hours after the inoculation, a test drug suspended or dissolved in 5% HCO 60 (a product manufactured by Nikkol) was administered intraperitoneally successively once daily for 7 days. To the control group, the same quantity as above of 5% HCO 60 was intraperitoneally administered in the same manner. Fourteen days after the inoculation, the tumor was excised and weighed, from which the average tumor weight ratio between the test group and the control group (T/C) was determined.

The subject of data set [3] is Ehrlich ascites carcinoma. As to the kind of experiment: Inhibition of Ehrlich solid tumor in mice, oral administration starting six days after inoculation (Table 2). To be noted: for T/C (average tumor weight ratio between test group and control group): 60 mg/kg orally once daily for 10 days from day 6, Ehrlich, day 21. Format: in vivo, ddY mice. The procedure: as §1
Ehrlich ascites carcinoma was subcutaneously inoculated into the inguinal region of ddY mice (5 weeks old, male, 8 mice per group) with 3×10^6 cells per mouse. Six days after the inoculation, a test drug dissolved or suspended in 0.5% CMC solution was administered orally to the test group successively once daily for 10 days, while the same quantity as above of 0.5% CMC solution was orally administered to the control group. Twenty one days after the inoculation, the tumor was excised and weighed, from which the average tumor weight ratio between the test group and the control group (T/C) was determined.

Data set [4] can be described thus: Acute toxicity test (b), oral LD50 (Table 4). To be noted: mouse, in vivo. On the procedure: (b) The test compound was suspended in 0.25% CMC solution and administered orally to SLC-ddY mice (5 weeks old, male, 6 mice per group). The number of dead mice was counted over the subsequent 3 weeks. LD50 value was calculated according to the method of Van der Waerden.

Data set [5] relates to Ehrlich ascites carcinoma. Kind of data set: Carcinostatic test, oral, ED values (Table 5). The data set is classed as in vivo, ddY mice. To be noted: Mus musculus, 336 h, oral once daily for 10 days, least square method; for ED30: read-out: ED30; for ED40: read-out: ED40. The procedure:
Ehrlich ascites carcinoma was subcutaneously inoculated into the right inguinal region of ddY mice (5 weeks old, male, 8 mice per group) with 8×10^6 cells per mouse. Twenty four hours after the inoculation,5, 10, 20 or 40 mg/kg of a test drug suspended or dissolved in polyethylene glycol was administered orally to the test group successively once daily for 10 days, while the same quantity as above of 10% polyethylene glycol was administered orally to the control group. Fourteen days after the inoculation, the tumor was excised and weighed, from which the average tumor weight ratio between the test group and the control group (T/C) was calculated. ED value was determined by the least square method.

The conditions of data set [6]: C. Heidelberger et al. (1958); cited from earlier work.
For data set [7] the following is noted: C. Heidelberger et al. (1958); cited from earlier work. The source holds these as a separate data set.
The conditions of data set [8]: cited from earlier work.
The subject of another data set is nucleotide-phosphorylase. To be noted: G. D. Birnie (1963); cited from earlier work.
Setting [9] is: 40 mg/kg i.p. once daily for 7 days.
Setting [10] is: 60 mg/kg orally once daily for 10 days.

Broadly, the LD50 is the dose at which mortality reaches 50%. On to `O=C(c1ccc(F)cc1)n1c(=O)c(F)cn([C@H]2C[C@H](O)[C@@H](CO)O2)c1=O` [compound 2], for which the “Number of dead mice” value in the data set on SLC-ddY mice is reported as “no dead mice”. Moreover, in [1], the Body weight change entry was “+4.1 g”; the “No. of surviving mice/No. of total mice used” value was 8/8; the “T/C (average tumor weight ratio between test group and control group)” value is reported as 46.2%. Also, the Body weight change result in data set [2] (setting [9]) is “+6.8 g”. The response vs control in vivo in data set [2] (Mus musculus, ip, 336 h, Ehrlich, day 14, read-out: T/C (average tumor weight ratio between test group and control group)) stood at 23.2%. Also, the Body weight change in data set [3] (setting [10]) is -0.4 g. Also, the “T/C (average tumor weight ratio between test group and control group)” value in data set [3] turned out to be 36.8%. This compound also came in with an LD50 at 504 h in data set [4] (po) of 2070 mg/kg. For the same compound, in data set [5], the ED30 is 11 mg/kg and the ED40 is 20 mg/kg.

As for `O=c1[nH]c(=O)n([C@H]2C[C@H](O)[C@@H](CO)O2)cc1F` [FUDR, 5-fluoro-2'-deoxy-β-uridine, reference compound], the Body weight change result is “+3.9 g” in data set [1], “+6.5 g” in data set [2] (setting [9]) and -2.7 g in data set [3] (setting [10]). The “No. of surviving mice/No. of total mice used” value in [1], in [2] (setting [9]) and in data set [3] (setting [10]) was 8/8 each time. In addition, the results for the “T/C (average tumor weight ratio between test group and control group)” value in [1] and in data set [3] were 56.3% and 48.6%, respectively. Besides, the toxicity entry in data set [6] is reported as “low toxicity”. Besides, the response vs control in vivo at 40 mg/kg in data set [2] (Mus musculus, Ehrlich, ip, 336 h, read-out: T/C (average tumor weight ratio between test group and control group)) amounted to 47.1%. In [7], the “carcinostatic activity in vitro” value was “intense carcinostatic activity in vitro”. This compound also gave a 50% lethal dose (LD50) at 504 h in data set [4] (oral, 3 weeks, Van der Waerden method) of 1330 mg/kg. For the same compound, the persistency in vivo result in data set [8] is “lacks persistency”. The excretion entry in [8] (in vivo) is “excreted rapidly”. Besides, the “decomposition by nucleotide-phosphorylase to yield 5-fluorouracil” value in the data set on nucleotide-phosphorylase is “readily decomposed by nucleotide-phosphorylase”. Also, in [5], the ED30 stood at 19 mg/kg. The ED40 in data set [5] is 24 mg/kg.
